Source: patent US8188121B2, “Substituted pyridines as antiparasitic AZA teraryl compounds” (The University of North Carolina at Chapel Hill, priority 2005, dated 2012)
Structures can show the parent of a compound that is named as a salt. Where two headings read alike, the source gives them in different places.

Legend:
[1] = test system: Plasmodium falciparum (P. f.); assay: In vitro antiprotozoal activity against P. f.; type: cell-based
Experimental: (§1) In vitro antiprotozoal activities were measured following established protocols. See Ismail, M. A., et al., J. Med. Chem., 46, 4761-4769 (2003); Stephens, C. E., et al., Bioorg. Med. Chem. Lett., 13, 2065-2069 (2003) (in vitro assay against Leishmania donovani).
(§2) Testing methods are as described above in Example 17.

[2] = test system: Leishmania donovani (L. d.); assay: In vitro antiprotozoal activity against L. d.; type: cell-based; conditions: read-out: L. d. IC50
Experimental: as §1, §2

[3] = test system: Trypanosoma brucei rhodesiense (T. b. r.); assay: In vitro antiprotozoal activity against T. b. r.; type: cell-based
Experimental: as §1, §2

L-6 rat mycoblast cells = assay: cells
Experimental: as §1, §2

[4] = test system: STIB 900 strain of Trypanosoma brucei rhodesiense; assay: T. b. r. STIB 900 mouse model; type: in vivo; conditions: for responders at 20 mg/kg: Trypanosoma brucei, 1440 h, mice surviving parasite free for 60 days, groups of four, read-out: Cures (converted)
Experimental: The activities of compounds 20, 18, 21, 48, 23c, 24c, 5, 4, and 10 against the STIB 900 strain of Trypanosoma brucei rhodesiense (T. b. r.) in a mouse model are shown in Table 3. […] Groups of four mice were infected intraperitoneally with 2×10^5 bloodstream forms of T. b. r. STIB 900 which originates from a patient in Tanzania. On days 3, 4, 5, and 6 post-infection the experimental groups were treated with the indicated compound, either by the intraperitoneal route, or for prodrugs, by the oral route. Usually the highest tolerated dose was used. The highest tolerated dose was determined in a pretoxicological experiment.
Parasitemia of the mice was checked daily up to day 14 post-infection and thereafter 2 times per week up to day 60. One group of mice was not treated and acted as control. Untreated control animals expire between day 7 and 8 post-infection. For relapsing mice, the day of death was recorded and the survival time determined. For the data shown in Table 3, cures reflect the number of mice that survive and are parasite free for 60 days. Survival reflects the average days of survival.
as §2

DNA minor groove = assay: ΔTm of linear triaryl dications (DNA minor groove binding)
[5] = Plasmodium falciparum, Table 1, k/K = thousand
[6] = Trypanosoma brucei, RHODESIENSE, Table 1, k/K = thousand, read-out: T. b. r. IC50
[7] = Rattus norvegicus, L6, read-out: CT IC50
[8] = 20 mg/kg ip, days 3-6 post-infection, average days of survival
[9] = 20 mg/kg ip, days 3-6 post-infection
[10] = Table 1, k/K = thousand, read-out: T. b. r. IC50
[11] = Table 2, K = thousand, read-out: T. b. r. IC50
[12] = read-out: CT IC50, Table 1, L-6 cells
[13] = Rattus norvegicus, L6, read-out: CT IC50, Table 4, L-6 cells

## CC(=O)O.N=C(N)c1ccc(-c2ccc(-c3ccc(C(=N)N)o3)cc2)o1
other
  melting point: 228 to 230 °C

## CONC(=N)c1ccc(-c2cnc(-c3ccc(C(=N)NOC)cc3)nc2)cc1 (as salt: hydrochloride) [Compound 29, 2,5-Bis-[4′-(N-methoxyamidino)phenyl]-pyrimidine]
other
  melting point: 217 to 218 °C

## N=C(NO)c1ccc(-c2ccc(-c3ccc(C(=N)NO)o3)cn2)cc1 [Compound 9, N-Hydroxy-5-{6-[4-(N-hydroxyamidino)-phenyl]-pyridin-3-yl}-furan-2-carboxamidine]
other
  melting point: 194 to 195 °C

## CC(=O)O.N=C(N)c1ccc(-c2ccc(-c3ccc(C(=N)N)o3)cn2)cc1 [Compound 10, 5-[6-(4-Amidinophenyl)-pyridin-3-yl]-furan-2-carboxamidine acetate salt]
[1]; [5]
  IC50: 5.2 nM
[2]; Leishmania donovani, Table 1
  IC50: 20500 nM
[3]; [6]
  IC50: 2 nM
L-6 rat mycoblast cells; [7]
  IC50: 30900 nM
[4]; [8]
  Survival: >53.5 days
[4]; [9]
  responders at 20 mg/kg: 75%

## N=C(NO)c1ccc(-c2ccc(-c3ccc(C(=N)NO)o3)cc2)o1 [Compound 13, N-Hydroxy-5-{4-[5-(N-hydroxyamidino)-furan-2-yl]-phenyl}-furan-2-carboxamidine]
other
  melting point: > 300 °C

## CC(=O)O.N=C(N)c1ccc(-c2ccc(-c3ccc(C(=N)N)cc3)cc2)cc1 [Compound 20, [1,1′;4′,1″]Terphenyl-4,4″-bis-carboxamidine acetate salt]
[1]; [5]
  IC50: 1 nM
[3]; [6]
  IC50: 5 nM
L-6 rat mycoblast cells; [7]
  IC50: 22100 nM
DNA minor groove; Table 1
  ΔTm: 19.1 °C
[4]; [8]
  Survival: 52.5 days
[4]; [9]
  responders at 20 mg/kg: 0%

## Cl.N=C(N)c1ccc(-c2ccc(-c3ccc(C(=N)N)cc3)c(F)c2)cc1 [Compound 23a, 2′-Fluoro-[1,1′;4′,1″]terphenyl-4,4″-bis-amidine hydrochloride salt]
[1]; [5]
  IC50: 1 nM
[2]; Leishmania donovani, Table 1
  IC50: 340 nM
[3]; [6]
  IC50: 2 nM
L-6 rat mycoblast cells; [7]
  IC50: 6400 nM
DNA minor groove; Table 1
  ΔTm: 15.1 °C

## Cl.N=C(N)c1ccc(-c2ccc(-c3ccc(C(=N)N)cc3)c(C(F)(F)F)c2)cc1 [Compound 23b, 2′-Trifluoromethyl-[1,1′;4′,1″]terphenyl-4,4″-bis-amidine hydrochloride salt]
[1]; [5]
  IC50: 15 nM
[2]; Leishmania donovani, Table 1
  IC50: 3000 nM
[3]; [6]
  IC50: 48 nM
L-6 rat mycoblast cells; [7]
  IC50: 9000 nM
other
  melting point: > 300 °C
DNA minor groove; Table 1
  ΔTm: 10.1 °C

## N=C(NO)c1ccc(-c2cnc(-c3ccc(C(=N)NO)cc3)nc2)cc1 [Compound 28, 2,5-Bis-[4′-(N-hydroxyamidino)phenyl]-pyrimidine]
other
  melting point: 290 to 292 °C

## N=C(N)c1ccc(-c2ccc(-c3ccc(C(=N)N)cn3)cc2)nc1 [Compound 31, 1,4-Bis-(5′-amidinopyridin-2′-yl)-phenylene]
[1]; Table 1, k/K = thousand
  IC50: 10 nM
[2]; Table 1
  IC50: > 100000 nM
[3]; [10]
  IC50: 47 nM

## N=C(N)c1ccc(-c2ccc(-c3ccc(C(=N)N)cc3)c3ccccc23)cc1 [Compound 38a, Phenyl[1,1]napthyl[4′,1″]phenyl-4,4″-bis-amidine]
[1]; Table 2, K = thousand
  IC50: 21 nM
[2]; Table 2
  IC50: 12900 nM
[3]; [11]
  IC50: 175 nM
L-6 rat mycoblast cells
  IC50: 7300 nM

## N=C(N)c1ccc(-c2ccc3cc(-c4ccc(C(=N)N)cc4)ccc3c2)cc1 [Compound 38b, Phenyl[1,2′]naphthyl[6′,1″]phenyl-4,4″-bis-amidine]
[1]; Table 2, K = thousand
  IC50: 19 nM
[2]; Table 2
  IC50: 280 nM
[3]; [11]
  IC50: 53 nM
L-6 rat mycoblast cells
  IC50: 8000 nM
DNA minor groove; Table 2
  ΔTm: 18.2 °C

## N=C(N)Nc1ccc(-c2ccc(-c3ccc(NC(=N)N)cc3)cc2)cc1 [Compound 48, 4,4″-Bis-guanidino-[1,1′;4′,1″]terphenyl]
[1]; [5]
  IC50: 27 nM
[2]; Leishmania donovani, Table 1
  IC50: 1200 nM
[3]; [6]
  IC50: 18 nM
L-6 rat mycoblast cells; Rattus norvegicus, L6, read-out: CT IC50, Table 1, L-6 cells
  IC50: 25400 nM
DNA minor groove; Table 1
  ΔTm: 12.2 °C
[4]; [8]
  Survival: >60 days
[4]; [9]
  responders at 20 mg/kg: 0%

## CC(C)N=C(N)Nc1ccc(-c2ccc(-c3ccc(NC(N)=NC(C)C)cc3)cc2)cc1 [Compound 51b, 4,4″-Bis(N′-isopropyl)-guanidino-[1,1′;4′,1″]terphenyl]
[1]; Table 1, k/K = thousand
  IC50: 14 nM
[2]; Table 1
  IC50: 7200 nM
[3]; [10]
  IC50: 530 nM
L-6 rat mycoblast cells; [12]
  IC50: 21900 nM

## N=C(N)c1ccc(-c2ccc(-c3ccc(C(=N)N)nc3)cc2)cn1 [Compound 66, 1,4-Bis-(2′-amidinopyridin-5′-yl)-phenylene hydrochloride salt]
[2]; Leishmania donovani, Table 1
  IC50: 720 nM
[2]; Leishmania donovani, Table 4
  IC50: 63 nM
L-6 rat mycoblast cells; [7]
  IC50: 31300 nM
L-6 rat mycoblast cells; [13]
  IC50: 1200 nM
DNA minor groove; Table 1
  ΔTm: 16.1 °C
[4]; 5 mg/kg ip, Table 5
  Cures: 0/4
  Survival: > 51.5 days

## Cl.NC(=NO)c1ccc(-c2ccc(-c3ccc(C(N)=NO)nc3)cc2)cn1 [Compound 67, 1,4-Bis-[2′-(N-hydroxyamidinopyridin-5′-yl)]-phenylene hydrochloride salt]
[1]; Table 1, k/K = thousand
  IC50: 2400 nM
[3]; [10]
  IC50: 12000 nM
L-6 rat mycoblast cells; [12]
  IC50: 8100 nM
[4]; 25 mg/kg po, Table 5
  Cures: 0/4
  Survival: 16.25 days

## N=C(N)c1cnc(-c2ccc(-c3cnc(C(=N)N)cn3)cc2)cn1 [Compound 71, 1,4-Bis-(2′-amidinopyrazin-5′-yl)-phenylene hydrochloride salt]
[1]; Plasmodium falciparum, Table 4
  IC50: 5170 nM
[2]; Leishmania donovani, Table 4
  IC50: 10000 nM
L-6 rat mycoblast cells; [13]
  IC50: 46500 nM

## N=C(N)c1ncc(-c2ccc(-c3cnc(C(=N)N)nc3)cc2)cn1 [Compound 73, 1,4-Bis-(2′-amidinopyrimidin-5′yl)-phenylene hydrochloride salt]
[2]; Leishmania donovani, Table 4
  IC50: 1720 nM

## N=C(N)c1ccc(-c2cnc(-c3ccc(C(=N)N)cc3)cn2)cc1 [Compound 75, 2,5-Bis-(4′-amidinophenyl)-pyrazine hydrochloride salt]
[2]; Leishmania donovani
  IC50: 562 nM
[3]; Trypanosoma brucei, RHODESIENSE, read-out: T. b. IC50
  IC50: 18 nM
L-6 rat mycoblast cells; [13]
  IC50: 42500 nM

## N=C(N)c1ccc(-c2cnc(-c3ccc(C(=N)N)nc3)nc2)cn1 [Compound 77, 2,5-Bis-(2′-amidinopyridin-5′-yl)-pyrimidine hydrochloride salt]
[2]; Leishmania donovani, Table 4
  IC50: 1830 nM

## N=C(N)c1ccc(-c2ccc(-c3ccc(C(=N)N)nc3)cc2)cc1 [Compound 80, Phenyl[1,1′]phenyl[4′,5″]pyridinyl-4,2″-bis-amidine hydrochloride salt]
[2]; Leishmania donovani, Table 4
  IC50: 84 nM
L-6 rat mycoblast cells; [13]
  IC50: 2800 nM

## N=C(N)c1ccc(-c2ccc(-c3ccc(C(=N)N)cn3)cc2)cc1 [Compound 83, Phenyl[1,1′]phenyl[4′,2″]pyridinyl-4,5″-bis-amidine hydrochloride salt]
[2]; Leishmania donovani, Table 4
  IC50: 1370 nM
L-6 rat mycoblast cells; [13]
  IC50: 26700 nM

## N=C(N)c1ccc(-c2ccc(-c3cnc(C(=N)N)nc3)cc2)cc1 [Compound 86, Phenyl[1,1′]phenyl[4′,5″]pyrimidinyl-4,2″-bis-amidine hydrochloride salt]
[2]; Leishmania donovani, Table 4
  IC50: 190 nM

## N=C(N)c1ccc(-c2ccc(-c3ccc(C(=N)N)nc3)cn2)cc1 [Compound 89, Phenyl[1,2′]pyridinyl[5′,5″]pyridinyl-4,2″-bis-amidine hydrochloride salt]
[1]; Plasmodium falciparum, Table 4
  IC50: 1 nM
[2]; Leishmania donovani, Table 4
  IC50: 510 nM
[3]; Trypanosoma brucei, RHODESIENSE, Table 4, read-out: T. b. IC50
  IC50: 6 nM
L-6 rat mycoblast cells; [13]
  IC50: 19900 nM
[4]; 5 mg/kg ip, Table 5
  Cures: 3/4
  Survival: > 60 days

## CON=C(N)c1ccc(-c2ccc(-c3ccc(C(N)=NOC)nc3)cn2)cc1.Cl [Compound 91, Phenyl[1,2′]pyridinyl[5′,5″]pyridinyl-4,2″-bis-N-methoxyamidine hydrochloride salt]
[1]; Table 4
  IC50: 2150 nM
[3]; Table 4, read-out: T. b. IC50
  IC50: 1980 nM
L-6 rat mycoblast cells; read-out: CT IC50, Table 4, L-6 cells
  IC50: 12800 nM
[4]; 25 mg/kg ip, Table 5
  Cures: 0/4
  Survival: 22.25 days

## N=C(N)c1ccc(-c2ccc(-c3ccc(C(=N)N)cn3)cn2)cc1 [Compound 94, Phenyl[1,2′]pyridinyl[5′,2″]pyridinyl-4,5″-bis-amidine hydrochloride salt]
[1]; Plasmodium falciparum, Table 4
  IC50: 3 nM
[2]; Leishmania donovani, Table 4
  IC50: 6820 nM
L-6 rat mycoblast cells; [13]
  IC50: 28300 nM
[4]; 5 mg/kg ip, Table 5
  Survival: > 60 days

## N=C(N)c1ccc(-c2ccc(-c3cnc(C(=N)N)cn3)cn2)cc1 [Compound 97, Phenyl[1,2′]pyridinyl[5′,5″]pyrazinyl-4,2″-bis-amidine hydrochloride salt]
[2]; Leishmania donovani, Table 4
  IC50: 15600 nM
L-6 rat mycoblast cells; [13]
  IC50: 93400 nM

## N=C(N)c1ccc(-c2ccc(-c3cnc(C(=N)N)nc3)cn2)cc1 [Compound 100, Phenyl[1,2′]pyridinyl[5′,5″]pyrimidinyl-4,2″-bis-amidine hydrochloride salt]
[2]; Leishmania donovani, Table 4
  IC50: 2640 nM
